Experimental data as given in US20230233569A1 (Revolution Medicines, Inc., priority 2020, published 2023).

Key:
KRAS Q61H = KRAS Q61H (Homo sapiens, UniProt P01116+P62937, Q61H); experiment: Disruption of BRAF RBD interaction with Ras (FRET / MOA assay, with Cyclophilin A); assay type: biochemical; conditions: KRAS Q61H; read-out: KRAS Q61H FRET data IC50
Outline: (§1)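 TR-FRET in 25 mM HEPES pH 7.3, 100 mM NaCl, 5 mM MgCl2, 0.1% BSA: 25 μM Cyclophilin A, 12.5 nM His6-Ras-GMPPNP, 50 nM GST-BRAF RBD with compound (10-point 3-fold series from 30 μM), 3 h at 25° C. Anti-His Eu/anti-GST APC added, 1.5 h more; IC50 from decreased FRET ratio versus DMSO.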

NRAS WT = NRAS WT (Homo sapiens, UniProt P01111+P62937); experiment: as above; assay type: biochemical; conditions: NRAS WT; read-out: NRAS WT FRET data IC50
NRAS WT, sequence (P01111 whole entry): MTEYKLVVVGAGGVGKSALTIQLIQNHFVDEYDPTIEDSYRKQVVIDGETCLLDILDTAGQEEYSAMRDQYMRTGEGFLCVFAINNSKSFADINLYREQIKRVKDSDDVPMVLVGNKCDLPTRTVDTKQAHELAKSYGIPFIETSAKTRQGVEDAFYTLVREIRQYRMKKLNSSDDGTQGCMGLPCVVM
NRAS WT, sequence (P62937 whole entry): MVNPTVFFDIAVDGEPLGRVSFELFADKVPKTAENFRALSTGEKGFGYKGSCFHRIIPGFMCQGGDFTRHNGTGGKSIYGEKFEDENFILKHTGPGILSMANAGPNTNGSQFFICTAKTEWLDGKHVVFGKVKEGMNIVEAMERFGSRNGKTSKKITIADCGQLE
Outline: as §1

NRAS Q61R = NRAS Q61R (Homo sapiens, UniProt P01111+P62937, Q61R); experiment: as above; assay type: biochemical; conditions: NRAS Q61R; read-out: NRAS Q61R FRET data IC50
NRAS Q61R, sequence (P01111 whole entry Q61R): as the sequence (P01111 whole entry) above, with Q61R counted along it
NRAS Q61R, sequence (P62937 whole entry): as the sequence (P62937 whole entry) above
Outline: as §1

NRAS Q61K = NRAS Q61K (Homo sapiens, UniProt P01111+P62937, Q61K); experiment: as above; assay type: biochemical; conditions: NRAS Q61K; read-out: NRAS Q61K FRET data IC50
NRAS Q61K, sequence (P01111 whole entry Q61K): as the sequence (P01111 whole entry) above, with Q61K counted along it
NRAS Q61K, sequence (P62937 whole entry): as the sequence (P62937 whole entry) above
Outline: as §1

NRAS G12C = NRAS G12C (Homo sapiens, UniProt P01111+P62937, G12C); experiment: as above; assay type: biochemical; conditions: NRAS G12C; read-out: NRAS G12C FRET data IC50
NRAS G12C, sequence (P01111 whole entry G12C): as the sequence (P01111 whole entry) above, with G12C counted along it
NRAS G12C, sequence (P62937 whole entry): as the sequence (P62937 whole entry) above

KRAS G12C = KRAS G12C (Homo sapiens, UniProt P01116+P62937, G12C); experiment: as above; assay type: biochemical; conditions: read-out: KRAS G12C FRET data, IC50
KRAS G12C, sequence (P01116 1-169 isoform P01116-2 G12C): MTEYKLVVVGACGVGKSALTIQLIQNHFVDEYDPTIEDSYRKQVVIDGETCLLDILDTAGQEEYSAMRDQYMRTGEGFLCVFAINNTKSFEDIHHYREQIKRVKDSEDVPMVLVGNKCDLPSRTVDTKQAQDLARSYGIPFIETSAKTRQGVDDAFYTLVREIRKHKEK
KRAS G12C, sequence (P62937 whole entry): as the sequence (P62937 whole entry) above
Outline: (§2)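 TR-FRET: nucleotide-loaded K-Ras mutant or WT with Cyclophilin A and BRAF RBD, compound 10-point 3-fold from 30 μM final, 3 h at 25° C, then anti-His Eu (10 nM) and anti-GST APC (50 nM) for 1.5 h. Decreased FRET ratio versus DMSO gives IC50.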

KRAS G12V = KRAS G12V (Homo sapiens, UniProt P01116+P62937, G12V); experiment: as above; assay type: biochemical; conditions: KRAS G12V; read-out: KRAS G12V FRET data IC50
KRAS G12V, sequence (P01116 1-169 isoform P01116-2 G12V limits assumed): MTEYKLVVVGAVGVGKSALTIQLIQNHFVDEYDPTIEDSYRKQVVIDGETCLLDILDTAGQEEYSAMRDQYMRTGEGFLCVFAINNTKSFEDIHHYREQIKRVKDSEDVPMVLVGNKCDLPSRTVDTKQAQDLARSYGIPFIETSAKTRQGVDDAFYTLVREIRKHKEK
KRAS G12V, sequence (P62937 whole entry): as the sequence (P62937 whole entry) above
Outline: as §2

KRAS G12S = KRAS G12S (Homo sapiens, UniProt P01116+P62937, G12S); experiment: as above; assay type: biochemical; conditions: read-out: KRAS G12S FRET data, IC50
KRAS G12S, sequence (P01116 1-169 isoform P01116-2 G12S limits assumed): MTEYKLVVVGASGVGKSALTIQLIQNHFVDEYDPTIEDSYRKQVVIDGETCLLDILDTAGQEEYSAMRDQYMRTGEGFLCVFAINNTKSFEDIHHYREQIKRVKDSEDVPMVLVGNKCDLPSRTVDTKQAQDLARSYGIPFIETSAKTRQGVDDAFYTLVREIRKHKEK
KRAS G12S, sequence (P62937 whole entry): as the sequence (P62937 whole entry) above
Outline: as §2

KRAS G13D = KRAS G13D (Homo sapiens, UniProt P01116+P62937, G13D); experiment: as above; assay type: biochemical; conditions: KRAS G13D; read-out: KRAS G13D FRET data IC50
KRAS G13D, sequence (P01116 1-169 isoform P01116-2 G13D limits assumed): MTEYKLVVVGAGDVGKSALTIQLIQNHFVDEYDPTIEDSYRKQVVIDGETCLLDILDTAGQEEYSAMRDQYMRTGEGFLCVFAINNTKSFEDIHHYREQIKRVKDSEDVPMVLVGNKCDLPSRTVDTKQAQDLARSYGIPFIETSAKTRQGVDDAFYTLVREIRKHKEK
KRAS G13D, sequence (P62937 whole entry): as the sequence (P62937 whole entry) above
Outline: as §2

KRAS G12D = KRAS G12D (Homo sapiens, UniProt P01116+P62937, G12D); experiment: as above; assay type: biochemical; conditions: read-out: KRAS G12D FRET data, IC50
KRAS G12D, sequence (P01116 1-169 isoform P01116-2 G12D limits assumed): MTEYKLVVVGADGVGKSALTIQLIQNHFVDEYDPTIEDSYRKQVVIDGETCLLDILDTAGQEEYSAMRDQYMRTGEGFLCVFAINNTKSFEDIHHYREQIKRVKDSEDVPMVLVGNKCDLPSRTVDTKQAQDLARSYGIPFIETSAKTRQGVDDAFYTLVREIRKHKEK
KRAS G12D, sequence (P62937 whole entry): as the sequence (P62937 whole entry) above
Outline: as §2

KRAS G13C = KRAS G13C (Homo sapiens, UniProt P01116+P62937, G13C); experiment: as above; assay type: biochemical; conditions: read-out: KRAS G13C FRET data, IC50
KRAS G13C, sequence (P01116 1-169 isoform P01116-2 G13C): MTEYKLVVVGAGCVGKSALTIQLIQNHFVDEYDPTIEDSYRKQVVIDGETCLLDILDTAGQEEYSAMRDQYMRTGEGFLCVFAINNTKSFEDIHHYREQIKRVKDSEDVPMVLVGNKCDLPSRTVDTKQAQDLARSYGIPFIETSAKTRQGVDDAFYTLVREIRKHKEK
KRAS G13C, sequence (P62937 whole entry): as the sequence (P62937 whole entry) above
Outline: as §2

KRAS WT = KRAS WT (Homo sapiens, UniProt P01116+P62937); experiment: as above; assay type: biochemical; conditions: KRAS WT; read-out: KRAS WT FRET data IC50
KRAS WT, sequence (P01116 1-169 isoform P01116-2 limits assumed): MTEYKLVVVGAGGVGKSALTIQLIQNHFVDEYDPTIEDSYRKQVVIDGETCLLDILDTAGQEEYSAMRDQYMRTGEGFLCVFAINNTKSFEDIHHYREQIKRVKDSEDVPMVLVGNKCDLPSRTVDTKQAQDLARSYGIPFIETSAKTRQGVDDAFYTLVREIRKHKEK
KRAS WT, sequence (P62937 whole entry): as the sequence (P62937 whole entry) above
Outline: as §2

NCI-H358 (K-Ras G12C) = experiment: CellTiter-Glo cell viability assay, 5-day treatment; assay type: cell-based; conditions: Homo sapiens, NCI-H358, 120 h, 5-day treatment; read-out: H358 Cell Viability assay data (K-Ras G12C, IC50)
Outline: (§3)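 Five-day compound treatment of plated cells; luminescent read after ~30 min at RT. Percent-of-DMSO data fit to a four-parameter logistic model.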

Capan-1 (K-Ras G12V) = experiment: as above; assay type: cell-based; conditions: Homo sapiens, CAPAN-1, 120 h, 5-day treatment; read-out: Capan-1 Cell Viability assay data (K-Ras G12V, IC50)
Outline: as §3

KRAS Q61H, sequence (P01116 1-169 isoform P01116-2 Q61H limits assumed): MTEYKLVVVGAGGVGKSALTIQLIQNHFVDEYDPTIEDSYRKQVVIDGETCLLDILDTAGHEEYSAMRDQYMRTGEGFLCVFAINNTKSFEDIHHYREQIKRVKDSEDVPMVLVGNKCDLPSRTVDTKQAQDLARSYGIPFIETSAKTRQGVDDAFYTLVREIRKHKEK
KRAS Q61H, sequence (P62937 whole entry): as the sequence (P62937 whole entry) above

| SMILES | IC50 (KRAS Q61H) [nM] | IC50 (NRAS WT) [nM] | IC50 (NRAS Q61R) [nM] | IC50 (NRAS Q61K) [nM] | IC50 (NRAS G12C) [nM] | IC50 (KRAS G12C) [nM] | IC50 (KRAS G12V) [nM] | IC50 (KRAS G12S) [nM] | IC50 (KRAS G13D) [nM] | IC50 (KRAS G12D) [nM] | IC50 (KRAS G13C) [nM] | IC50 (KRAS WT) [nM] | IC50 (NCI-H358 (K-Ras G12C)) [nM] | IC50 (Capan-1 (K-Ras G12V)) [nM] |
| --- | --- | --- | --- | --- | --- | --- | --- | --- | --- | --- | --- | --- | --- | --- |
| CCn1c(-c2cc(N3CCN(C)CC3)cnc2[C@H](C)OC)c2c3cc(ccc31)-c1csc(n1)C[C@H](NC(=O)[C@H](C(C)C)N(C)C(=O)N1CCOCC1)C(=O)N1CCC[C@H](N1)C(=O)OCC(C)(C)C2 (atropisomer, axis not shown) [Example A555] | 10 to 100 | 10 to 100 | 10 to 100 | 10 to 100 | 10 to 100 | 10 to 100 | 10 to 100 | 10 to 100 | 100 to 1000 | 100 to 1000 | 10 to 100 | 10 to 100 | < 10 | < 10 |
| CCn1c(-c2cccnc2[C@H](C)OC)c2c3cc(ccc31)-c1csc(n1)C[C@H](NC(=O)[C@H](C(C)C)N(C)C(=O)N1CC[C@]13CCCN(C)C3)C(=O)N1CCC[C@H](N1)C(=O)OCC(C)(C)C2 [Example A442] | 100 to 1000 | 1000 to 10000 | 1000 to 10000 | 1000 to 10000 | 1000 to 10000 | 1000 to 10000 | 1000 to 10000 | 1000 to 10000 | 100 to 1000 | 1000 to 10000 | 1000 to 10000 | 1000 to 10000 | 100 to 1000 | 1000 to 10000 |
| CCn1c(-c2cccnc2[C@H](C)OC)c2c3cc(ccc31)-c1csc(n1)C[C@H](NC(=O)[C@H](C(C)C)N(C)C(=O)N1CC3(CC(N(C)CCO)C3)C1)C(=O)N1CCC[C@H](N1)C(=O)OCC(C)(C)C2 (atropisomer, axis not shown) [Example A467] | 10 to 100 | 100 to 1000 | 100 to 1000 | 10 to 100 | 10 to 100 | 10 to 100 | 100 to 1000 | 100 to 1000 | 100 to 1000 | 100 to 1000 | 100 to 1000 | 100 to 1000 | 10 to 100 | 10 to 100 |
| CCn1c(-c2cccnc2[C@H](C)OC)c2c3cc(ccc31)-c1csc(n1)C[C@H](NC(=O)[C@H](C(C)C)N(C)C(=O)N1CC3(CC(O)C3)C1)C(=O)N1CCC[C@H](N1)C(=O)OCC(C)(C)C2 (atropisomer, axis not shown) [Example A510] | 10 to 100 | 100 to 1000 | 100 to 1000 | 10 to 100 | 10 to 100 | 10 to 100 | 100 to 1000 | 100 to 1000 | 100 to 1000 | 1000 to 10000 | 100 to 1000 | 100 to 1000 | 10 to 100 | 10 to 100 |
| CCn1c(-c2cc(N3CCN(C)CC3)cnc2[C@H](C)OC)c2c3cc(ccc31)-c1csc(n1)C[C@H](NC(=O)[C@H](C(C)C)N(C)C(=O)[C@@H]1OCC[C@@H]1c1ccccc1)C(=O)N1CCC[C@H](N1)C(=O)OCC(C)(C)C2 (atropisomer, axis not shown) [Example A583] | 10 to 100 | 100 to 1000 | 10 to 100 | 100 to 1000 | 10 to 100 | 10 to 100 | 100 to 1000 | 100 to 1000 | 100 to 1000 | 100 to 1000 | 100 to 1000 | 100 to 1000 | < 10 | < 10 |
| CCn1c(-c2cc(N3CCN(C)CC3)cnc2[C@H](C)OC)c2c3cc(ccc31)-c1csc(n1)C[C@H](NC(=O)[C@H](C1CCCC1)N(C)C(=O)N1CCC1)C(=O)N1CCC[C@H](N1)C(=O)OCC(C)(C)C2 (atropisomer, axis not shown) [Example A529] | 10 to 100 | 10 to 100 | 10 to 100 | 10 to 100 | 10 to 100 | 10 to 100 | 10 to 100 | 10 to 100 | 10 to 100 | 100 to 1000 | 10 to 100 | 10 to 100 | < 10 | < 10 |
